Structures are written as SMILES.

Here are results for 15 compounds from patent US20080171783A1, “COMPOSITIONS AND METHODS FOR TREATING HYPERPROLIFERATIVE DISEASE” (Migenix Inc., priority 2006, published 2008).

For one assay, the target named is T1, Calf polymerase alpha (Bos taurus, UniProt A0AAA9TD94).
T1 construct: purchased Replizyme Ltd (Heslington, York, UK)
T1 sequence (A0AAA9TD94 1-1441): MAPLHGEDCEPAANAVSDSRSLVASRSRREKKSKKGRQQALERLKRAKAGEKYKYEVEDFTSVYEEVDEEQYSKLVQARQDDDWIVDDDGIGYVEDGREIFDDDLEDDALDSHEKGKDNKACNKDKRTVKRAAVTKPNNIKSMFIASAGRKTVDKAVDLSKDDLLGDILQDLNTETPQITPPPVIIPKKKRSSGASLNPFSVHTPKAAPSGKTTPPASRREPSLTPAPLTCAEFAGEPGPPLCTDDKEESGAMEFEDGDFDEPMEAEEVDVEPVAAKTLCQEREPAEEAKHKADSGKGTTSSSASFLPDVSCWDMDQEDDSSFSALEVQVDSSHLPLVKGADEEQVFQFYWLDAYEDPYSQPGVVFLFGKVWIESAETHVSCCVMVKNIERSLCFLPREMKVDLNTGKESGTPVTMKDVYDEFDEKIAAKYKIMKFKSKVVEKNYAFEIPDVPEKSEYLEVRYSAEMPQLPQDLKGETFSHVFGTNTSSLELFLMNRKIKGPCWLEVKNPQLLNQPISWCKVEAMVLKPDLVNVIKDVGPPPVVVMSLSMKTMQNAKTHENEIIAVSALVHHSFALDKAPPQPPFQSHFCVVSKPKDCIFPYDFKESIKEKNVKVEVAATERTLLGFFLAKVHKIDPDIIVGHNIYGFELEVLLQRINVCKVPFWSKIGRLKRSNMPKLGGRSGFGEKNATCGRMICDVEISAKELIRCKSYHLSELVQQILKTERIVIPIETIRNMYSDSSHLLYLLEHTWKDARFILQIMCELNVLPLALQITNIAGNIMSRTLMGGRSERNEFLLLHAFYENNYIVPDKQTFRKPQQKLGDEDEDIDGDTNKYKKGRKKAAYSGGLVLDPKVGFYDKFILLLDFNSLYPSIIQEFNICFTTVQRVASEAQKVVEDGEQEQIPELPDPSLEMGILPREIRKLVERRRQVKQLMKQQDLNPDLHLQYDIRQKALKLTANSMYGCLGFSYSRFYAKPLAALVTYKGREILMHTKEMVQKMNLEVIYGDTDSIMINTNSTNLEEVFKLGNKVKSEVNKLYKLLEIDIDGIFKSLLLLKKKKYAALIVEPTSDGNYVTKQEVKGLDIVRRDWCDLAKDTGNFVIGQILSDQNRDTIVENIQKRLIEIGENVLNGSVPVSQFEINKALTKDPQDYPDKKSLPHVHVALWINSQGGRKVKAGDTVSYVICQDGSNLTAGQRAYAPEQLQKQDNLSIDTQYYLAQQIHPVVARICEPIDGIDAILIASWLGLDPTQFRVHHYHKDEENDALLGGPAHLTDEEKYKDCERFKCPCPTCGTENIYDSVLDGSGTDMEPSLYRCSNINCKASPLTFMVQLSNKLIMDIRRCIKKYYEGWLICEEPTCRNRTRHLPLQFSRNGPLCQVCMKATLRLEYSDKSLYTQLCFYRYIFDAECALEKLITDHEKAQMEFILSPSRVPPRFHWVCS
Kind of assay: Calf polymerase alpha inhibition (Replizyme kit). It counts as biochemical. The following applies: at 10 μM, single point screening. The protocol: Calf polymerase alpha and human polymerase alpha investigations were performed with a kit available from Replizyme Ltd (Heslington, York, UK).

Assay [1] concerns 5 Leukemia and 5 Colon Cancer Cell Lines. Kind of assay: Cell viability by XTT, cell line panel. The assay is classed as cell-based. The settings on record: for Range (Percentage of Control over the same 10 cell lines) / ARF (Average Response Factor, Average Percentage of Control): 10 μM; for Range (Percentage of Control over the same 10 cell lines): lowest to highest of the ten cell lines; for viability at 10 µM / ARF (Average Response Factor, Average Percentage of Control): average of the ten Percentage of Control values; for viability at 10 µM: read-out: ARF (Average Response Factor, Average Percentage of Control). The procedure:
Compounds were solubilized at […] in DMSO and were stored at −20° C. Test compounds were initially tested at a single concentration of 10 μM and a subset of test compounds were further tested in selected cell lines using a six concentration dose response curve.
Cell Preparation Cancer cell lines were passaged in T-75 flasks prior to use in the assay in cell culture medium recommended by the ATCC (American Type Culture Collection; Table 6). On the day preceding the assay, the cells were split 1:2 to assure they were in an exponential growth phase at the time of compound treatment. Total cell and viability quantification was performed using a hemocytometer and Trypan Blue dye exclusion. […] The cells were resuspended at the appropriate cell per mL (Table 6) in tissue culture medium and added to the microtitre plates in a volume of 100 μL. Colon cell lines were incubated overnight at 37° C./5% CO2 to allow for cell adherence to the plates.
Plate Format: Each plate contains cell control wells (cells only), drug calorimetric control wells (drug only) as well as experimental wells (drug plus cells). Samples were tested in triplicate at a concentration of 10 μM and five half-logarithmic dilutions.
Cell Viability by XTT: Following incubation at 37° C. in a 5% CO2 incubator for four days, the test plates were stained with the tetrazolium dye XTT (2,3-bis(2-methoxy-4-nitro-5-sulfophenyl)-5-[(phenylamino)carbonyl]-2H-tetrazolium hydroxide). XTT-tetrazolium was metabolized by the mitochondrial enzymes of metabolically active cells to a soluble formazan product. XTT solution was prepared daily as a stock of 1 mg/mL in RPMI1640. Phenazine methosulfate (PMS) solution was prepared at 0.15 mg/mL in phosphate buffered saline (PBS) and stored in the dark at −20° C. XTT/PMS stock was prepared immediately before use by adding 40 μL of PMS per mL of XTT solution. Fifty (50) microlitres of XTT/PMS was added to each well of the plate and the plate was reincubated for 4 hours at 37° C. Plates were sealed with adhesive plate sealers and shaken gently or inverted several times to mix the soluble formazan product and the plate was read spectrophotometrically at 450/650 nm with a Molecular Devices Vmax plate reader. […] An Average Response Factor (ARF) was calculated for each compound by averaging the ten Percentage of Control values for the cell lines. […] Deviations below 100% control indicate activity. The concentration of each tested compound is 10 μM.
In general terms: Formazan colour is commonly taken as a measure of viable cells.

In the case of `NCCCCN(CC(=O)Nc1ccc(C2CCCCC2)cc1)C(=O)Nc1ccc(C=Cc2ccccc2)cc1` [Compound 324, 2-[1-(4-AMINO-BUTYL)-3-(4-STYRYL-PHENYL)-UREIDO]-N-(4-CYCLOHEXYL-PHENYL)-ACETAMIDE], on Calf polymerase alpha, the inhibition at 10 µM is 92.5%. Moreover, in assay [1], the “Range (Percentage of Control over the same 10 cell lines)” value is recorded as 69.3 to 109.9% and the viability at 10 µM is 95.8%.

For the compound `Cc1ccc(NC(=O)[C@H](CCCCN)NC(=O)Nc2cccc(Cc3ccccc3)c2)cc1` [Compound 212, (S)-6-AMINO-2-[3-(3-BENZYL-PHENYL)-UREIDO]-HEXANOIC ACID P-TOLYLAMIDE], the “% Inhibition” value at Calf polymerase alpha turned out to be 97%. For the same compound, in assay [1], the “ARF (Average Response Factor, Average Percentage of Control)” value amounted to 94.2% and the “Range (Percentage of Control over the same 10 cell lines)” value lay in the range of 52.7 to 118.6%.

In the case of `NCCCC[C@H](NC(=O)Nc1ccc(OCc2ccccc2)cc1)C(=O)Nc1ccc(C2CCCCC2)cc1` [Compound 117, (S)-6-AMINO-2-[3-(4-BENZYLOXY-PHENYL)-UREIDO]-HEXANOIC ACID (4-CYCLOHEXYL-PHENYL)-AMIDE], the inhibition at 10 µM against Calf polymerase alpha was found to be 102%. Moreover, in assay [1], the “Range (Percentage of Control over the same 10 cell lines)” value is on record as 35.7 to 125.7% and the viability at 10 µM amounted to 86.5%.

Turning to `Cc1ccc(NC(=O)[C@H](CCCCN)NC(=O)Nc2cccc(OCc3ccccc3)c2)cc1` [Compound 204, (S)-6-AMINO-2-[3-(3-BENZYLOXY-PHENYL)-UREIDO]-HEXANOIC ACID P-TOLYLAMIDE], the “% Inhibition” value at Calf polymerase alpha was 94%. For the same compound, in assay [1], the “ARF (Average Response Factor, Average Percentage of Control)” value is 89.3% and the “Range (Percentage of Control over the same 10 cell lines)” value was 70.1 to 116.4%.

For `NCCCC[C@H](NC(=O)OCC1c2ccccc2-c2ccccc21)C(=O)Nc1ccc2c(c1)CCC2` [Compound 81, (S)-[5-AMINO-1-(INDAN-5-YLCARBAMOYL)-PENTYL]-CARBAMIC ACID 9H-FLUOREN-9-YLMETHYL ESTER], the inhibition at 10 µM on Calf polymerase alpha was 101%. Further, in assay [1], the “Range (Percentage of Control over the same 10 cell lines)” value is 61.3 to 116.5% and the viability at 10 µM turned out to be 94.2%.

As for `NCc1ccc(NC(=O)[C@@H](NC(=O)Nc2ccc(OCc3ccccc3)cc2)c2ccccc2)cc1` [Compound 305, (S)—N-(4-AMINOMETHYL-PHENYL)-2-[3-(4-BENZYLOXY-PHENYL)-UREIDO]-2-PHENYL-ACETAMIDE], on Calf polymerase alpha, the inhibition at 10 µM came to 104%. Moreover, in assay [1], the “Range (Percentage of Control over the same 10 cell lines)” value lay within 30.9 to 105.9% and the viability at 10 µM is 79.5%.

As for `NCCCCCCNC(=O)[C@@H](NC(=O)Nc1ccc(OCc2ccccc2)cc1)c1ccccc1` [Compound 319, (S)—N-(6-AMINO-HEXYL)-2-[3-(4-BENZYLOXY-PHENYL)-UREIDO]-2-PHENYL-ACETAMIDE], at Calf polymerase alpha, the inhibition at 10 µM was determined as 71%. In assay [1], the “Range (Percentage of Control over the same 10 cell lines)” value is given as 80.0 to 116.4% and the viability at 10 µM was 95.6%.

For `NCCCCC[C@H](NC(=O)NCc1ccccc1)C(=O)Nc1ccc(C2CCCCC2)cc1` [Compound 120, (S)-7-AMINO-2-(3-BENZYL-UREIDO)-HEPTANOIC ACID (4-CYCLOHEXYL-PHENYL)-AMIDE], on Calf polymerase alpha, the inhibition at 10 µM was determined as 100%. Besides, in assay [1], the “Range (Percentage of Control over the same 10 cell lines)” value lay within 40.4 to 117.1% and the viability at 10 µM came out at 88.4%.

As to `NCCCC[C@H](NC(=O)Nc1ccc(OCc2ccccc2)cc1)C(=O)Nc1cccc2c1CCC2` [Compound 321, (S)-6-AMINO-2-[3-(4-BENZYLOXY-PHENYL)-UREIDO]-HEXANOIC ACID INDAN-4-YLAMIDE], the inhibition at 10 µM on Calf polymerase alpha was determined as 101%. In assay [1], the “Range (Percentage of Control over the same 10 cell lines)” value is 55.9 to 109.3% and the viability at 10 µM came out at 88%.

Consider `Cc1cc2cc(NC(=O)[C@H](CCCCN)NC(=O)Nc3ccc(OCc4ccccc4)cc3)ccc2[nH]1` [Compound 206, (S)-6-AMINO-2-[3-(4-BENZYLOXY-PHENYL)-UREIDO]-HEXANOIC ACID (2-METHYL-1H-INDOL-5-YL)-AMIDE], for which the inhibition at 10 µM at Calf polymerase alpha came out at 87%. Besides, in assay [1], the “Range (Percentage of Control over the same 10 cell lines)” value lay within 81.4 to 107.6% and the viability at 10 µM turned out to be 92.9%.

With `Cc1ccc(NC(=O)[C@H](CCCCN)NC(=O)Nc2cccc(Oc3ccccc3)c2)cc1` [Compound 98, (S)-6-AMINO-2-[3-(3-PHENOXY-PHENYL)-UREIDO]-HEXANOIC ACID P-TOLYLAMIDE], the “% Inhibition” value at Calf polymerase alpha is listed as 89%. In assay [1], the “ARF (Average Response Factor, Average Percentage of Control)” value came out at 90.8% and the “Range (Percentage of Control over the same 10 cell lines)” value fell in the range of 53.8 to 126.6%.

As for `Cc1ccc(NC(=O)[C@H](CCCCN)NS(=O)(=O)c2ccc(-c3ccccc3)cc2)cc1` [Compound 70, (S)-6-AMINO-2-(BIPHENYL-4-SULFONYLAMINO)-HEXANOIC ACID P-TOLYLAMIDE], on Calf polymerase alpha, the “% Inhibition” value is given as 50%. In addition, in assay [1], the “ARF (Average Response Factor, Average Percentage of Control)” value is 94.5% and the “Range (Percentage of Control over the same 10 cell lines)” value was 61.1 to 115.5%.

As for `Cc1ccc(NC(=O)[C@H](CCCCN)NC(=O)CNc2ccccc2Oc2ccccc2)cc1` [Compound 366, (S)-6-AMINO-2-[2-(2-PHENOXY-PHENYLAMINO)-ACETYLAMINO]-HEXANOIC ACID P-TOLYLAMIDE], at Calf polymerase alpha, the “% Inhibition” value is given as 100%. Moreover, in assay [1], the “ARF (Average Response Factor, Average Percentage of Control)” value was determined as 100.4% and the “Range (Percentage of Control over the same 10 cell lines)” value was 64.8 to 121.1%.

Take `Cc1ccc(NC(=O)C[C@H](CCCCN)NC(=O)Nc2ccc3c(c2)Cc2ccccc2-3)cc1` [Compound 247, (S)-7-AMINO-3-[3-(9H-FLUOREN-2-YL)-UREIDO]-HEPTANOIC ACID P-TOLYLAMIDE]: the “% Inhibition” value at Calf polymerase alpha was 87%. Also, in assay [1], the “ARF (Average Response Factor, Average Percentage of Control)” value amounted to 85.6% and the “Range (Percentage of Control over the same 10 cell lines)” value was in the range of 28.5 to 104.3%.

On to `Cc1ccc(NC(=O)[C@H](CCCN)NC(=O)Nc2ccc(OCc3ccccc3)cc2)cc1` [Compound 189, (S)-5-AMINO-2-[3-(4-BENZYLOXY-PHENYL)-UREIDO]-PENTANOIC ACID P-TOLYLAMIDE], for which the “% Inhibition” value at Calf polymerase alpha is 76%. In addition, in assay [1], the “ARF (Average Response Factor, Average Percentage of Control)” value came to 89.0% and the “Range (Percentage of Control over the same 10 cell lines)” value is on record as 66.6 to 107.6%.

A word on the inhibition: it is the drop in the measured response relative to a control, in per cent. For orientation: % Inhibition means the percentage by which the read-out fell short of the control.
